According to patent US10864192B2, “Compositions and methods for inhibiting brain trauma-induced neurodegeneration and related conditions” (priority 2016, dated 2020):
Several values for one entry are separate records, joined by “and”; a condition that tells them apart may be missing. Equal values may be shown once.

Columns and labels:
[1] = Plasma concentrations of phenserine and its metabolites in human plasma; assay type: in vivo
Method: The relationship between pharmacokinetic and pharmacodynamics evaluated in FIG. 15 was evaluated in aged volunteers. A total of 32 subjects (60-80 years of age, 11 males/21 females) were screened and enrolled. All participants provided informed consent, the conduct of the study were approved and overseen by the local Review IRB.
For pharmacokinetic (blood concentrations of primary drug and select metabolites) a dose […] additionally was evaluated.
These were centrifuged within 15 min of collection, and stored in a freezer at −70° C. freezer in marked polypropylene tubes until analysis. Phenserine levels were quantified by liquid chromatography/mass spectrometry (LC/MS/MS). In brief, analyses were undertaken on Perkin-Elmer (PE, Norwalk, USA) high performance liquid chromatographic (HPLC) instrumentation. Compound separation was performed on a Phenomenex LUNA C18 column (5 μM, 2.0 mm×150 mm; Torrance, USA), with a Phenomenex guard column (2 mm×30 mm). The mobile phase was 60% acetonitrile (HPLC grade) plus 40% ammonium acetate (v/v) with a flow rate of 0.4 mL/min. […] Thereafter, 2 mL of tert-butyl methyl ether was added and the sample was mixed and flash frozen. The organic layer was decanted, dried under a stream of nitrogen and reconstituted into 250 μL of mobile phase. Of this, a 60 μL sample was then injected into the HPLC.

clinical = test: clinical
From the text: FIGS. 33-34 depict two graphs from an Excel spreadsheet. FIG. 33 is a linear plot of plasma level vs time and FIG. 34 is a semi-log plot of plasma conc. vs time.

[2] = molecular target: acetylcholinesterase (AChE) (Homo sapiens (Human), UniProt P22303); test: RBC AChE inhibition after oral phenserine in humans; assay type: in vivo; conditions: 15 mg immediate release dose, TMax (1 hr)
Method: For pharmacodynamics AChE inhibition analyses: erythrocyte AChE levels were evaluated in whole blood samples by using methods known in the art. Briefly, duplicate samples of freshly collected whole blood were analyzed. Cholinesterase activity, U/L, was detected at 37° C. using a differential pH procedure on a Eurochem CL-10 (Rome, Italy). The time-course of enzyme inhibition was determined for each subject by expressing each mean post-phenserine administration AChE concentration as a fraction of the mean pre-administration resting level of AChE within the same individual. This value was then subtracted from 1 and multiplied by 100% to provide percent AchE inhibition.

[3] = molecular target: amyloid precursor protein (APP) (Mus musculus (Mouse), UniProt P12023); test: Amyloid precursor protein in primary cortical neurons (Western blot); assay type: cell-based; conditions: 48 hr
Method: Primary cortical neurons were harvested and isolated from mice, and then were cultured in line with methodologies known in the art. In brief, embryonic day 15-18 mouse pups were obtained from timed pregnant female mice (5 pups). Within a laminar flow cell culture hood, the brain was removed from these mouse pups and the meninges and blood vessels were carefully removed. […] Maintained on wet ice, individual cells were then isolated by titrating some 10 times to dissociate cells by use of using a glass pasture pipette with a fire polished tip. […]
Following maintenance in cell culture (>24 hr) primary cortical neurons were challenged to known concentrations of experimental drugs for 48 hr, or vehicle (culture media) alone. […] Quantification of select proteins, for example AAP was undertaken by Western Blotting using the APP N-terminal antibody (22C11) obtained from Chemicon (Temecula, Calif.). The housekeeping protein β-actin quantified in the same samples to allow normalization, and was probed with anti-β-actin (Chemicon). The Western blots were developed by using chemiluminescence (PIERCE), were visualized with a Phospholmager (BioRad, Hercules, Calif.), and resulting bands were quantified by QuantityOne software (BioRad).

[4] = test system: APP/PS1 AD transgenic (Tg) male mice; test: Concussive mTBI in APP/PS1 AD Tg mice, immunohistochemistry 72 hr post injury; assay type: in vivo, mouse; conditions: 72 hr post TBI
From the text: To study this in a model for prevention of progression of TBI pathologies into AD with resulting neuronal cell dysfunction and death, together with neuroinflammation, we used already ongoing, aged (10 to 12 month old) APP/PS1 AD transgenic (Tg) male mice were challenged with mTBI (concussive 30 g weight drop), followed by similar (−)-phenserine or vehicle post-treatment.
To similarly cross-validate this in the more complex model of aged (10 to 12 month old) APP/PS1 AD Tg male mice, animals were challenged with mTBI (concussive 30 g weight drop) followed by (−)-phenserine or vehicle post-treatment. […] Likewise, co-localization of proinflammatory TNF-α was elevated within IBA1+ microglia across brain regions in AD Tg APP/PS1 mice with and without mTBI, and this trend was mitigated by (−)-phenserine post treatment in mTBI challenged animals (FIG. 23).
(−)-Phenserine mitigates losses in synaptic integrity in wild and Tg mice subjected to weight drop injury. To evaluate whether mTBI-induced elevations in markers of cell loss (FJC) and neuroinflammation (TNF-α and IBA1+) are allied with a loss of synaptic integrity (which associates with cognitive loss (Wakade et al., 2010)), post- and pre-synaptic protein markers of synaptic integrity (post-synaptic density-95 (PSD-95) and synaptophysin, respectively) were immunohistochemically stained and quantified in control (w/o head injury) and mTBI challenged mice post-treated with vehicle or (−)-phenserine. […] These declines were mitigated by post treatment with (−)-phenserine. An alike trend was evident in mTBI challenged APP/PS1 AD Tg mice, and these reductions in post- and presynaptic proteins were similarly mitigated by post-treatment with (−)-phenserine (FIG. 25)

[5] = in vivo
[6] = 5 mg/kg BID, hippocampus and lateral cortex

acetylcholinesterase (AChE), sequence (P22303 32-574 with tags or gaps limits assumed): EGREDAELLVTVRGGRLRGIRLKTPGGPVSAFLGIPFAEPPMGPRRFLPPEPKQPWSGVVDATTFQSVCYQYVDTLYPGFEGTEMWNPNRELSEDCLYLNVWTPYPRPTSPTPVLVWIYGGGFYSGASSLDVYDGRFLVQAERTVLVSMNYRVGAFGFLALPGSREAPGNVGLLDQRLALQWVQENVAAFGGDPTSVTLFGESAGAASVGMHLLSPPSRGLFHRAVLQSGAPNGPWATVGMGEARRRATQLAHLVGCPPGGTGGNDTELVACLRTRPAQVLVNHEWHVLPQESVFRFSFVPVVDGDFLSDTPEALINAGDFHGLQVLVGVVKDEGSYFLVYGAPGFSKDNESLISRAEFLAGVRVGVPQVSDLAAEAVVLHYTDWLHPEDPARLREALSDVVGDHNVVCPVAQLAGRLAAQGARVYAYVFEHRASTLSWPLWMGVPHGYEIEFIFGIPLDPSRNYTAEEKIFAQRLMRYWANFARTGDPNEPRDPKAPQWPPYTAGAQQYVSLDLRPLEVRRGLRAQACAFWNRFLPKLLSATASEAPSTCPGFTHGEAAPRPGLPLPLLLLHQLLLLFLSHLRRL
amyloid precursor protein (APP), sequence (P12023 whole entry, looked up): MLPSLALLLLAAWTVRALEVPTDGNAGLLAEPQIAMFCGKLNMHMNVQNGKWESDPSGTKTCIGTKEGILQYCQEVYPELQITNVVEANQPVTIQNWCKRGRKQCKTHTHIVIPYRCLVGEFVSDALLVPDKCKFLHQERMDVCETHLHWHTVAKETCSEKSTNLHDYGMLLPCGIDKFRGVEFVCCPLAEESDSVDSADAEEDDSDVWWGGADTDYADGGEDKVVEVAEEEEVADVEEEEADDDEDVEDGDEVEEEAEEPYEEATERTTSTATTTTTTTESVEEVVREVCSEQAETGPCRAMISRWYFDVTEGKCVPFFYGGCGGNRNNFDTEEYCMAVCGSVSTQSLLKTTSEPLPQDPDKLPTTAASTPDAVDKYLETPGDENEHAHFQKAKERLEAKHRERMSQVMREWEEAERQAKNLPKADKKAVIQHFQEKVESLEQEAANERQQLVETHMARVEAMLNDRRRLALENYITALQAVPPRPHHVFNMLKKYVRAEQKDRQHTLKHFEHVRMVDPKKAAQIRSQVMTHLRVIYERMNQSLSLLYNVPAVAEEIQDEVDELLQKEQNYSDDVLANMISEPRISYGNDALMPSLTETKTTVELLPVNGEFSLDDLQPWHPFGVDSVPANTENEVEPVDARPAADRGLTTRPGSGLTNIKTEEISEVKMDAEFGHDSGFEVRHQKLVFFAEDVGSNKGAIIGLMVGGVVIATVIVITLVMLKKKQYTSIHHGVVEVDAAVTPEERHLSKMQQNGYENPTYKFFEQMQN

For `CN1CC[C@@]2(C)c3cc(OC(=O)Nc4ccccc4)ccc3N(C)[C@@H]12` [phenserine, (−)-phenylcarbamoyleseroline], the “Average Plasma Concentrations” value ([1]; Hour 1) was 3.02 ng/mL, the “Average Plasma Concentrations” value ([1]; Hour 2) was 2.09 ng/mL and the “Average Plasma Concentrations” value ([1]; Hour 3) was 1.08 ng/mL. For the same compound, the “Average Plasma Concentrations” value ([1]; Hour 4) was 0.31 ng/mL, the Cmax (clinical; human, in vivo, 15 mg) was 3.02 ng/mL and 8.9 nM and the expected plasma levels (clinical; targeted 30 mg/d or 60 mg/d in sustained release formulation) was 1.58 to 0.53 ng/ml. The “AChE inhibition in RBCs” value [2] was 34%, the “amyloid precursor protein level” value [3] was “inhibition of amyloid precursor protein” and the “mTBI-induced activation of microglia (IBA1+ cells)” value [4, 6] was “mitigated”. The “mTBI-induced neurodegeneration (Fluoro-Jade C+ cells)” value [4, 6] was “counteracted”, the “mTBI-induced reductions in synaptophysin and PSD-95” value [4] was “mitigated” and the “mTBI-induced elevations in TNF-α within microglia (co-localized TNF-α and IBA1+ cells)” value ([4]; hippocampus and lateral cortex) was “mitigated”. For the same compound, the “Brain:Plasma Partitioning” value [5] was 6.8-10:1 and the “brain:blood partition” value [5] was “approx. 8:1”.
